Test results: patent publication US9192650B2, “Methods of inhibiting photoreceptor apoptosis by eliciting the Faim2 antiapoptotic pathway” (The Regents of the University of Michigan, priority 2011, dated 2015)
“Also recorded” adds a separate entry of the source.

Experiments:
ERK = test: Immunoblot of ERK phosphorylation (P-ERK) in Fas-AAb treated 661W cells; format: cell-based; conditions: inhibitor pretreatment 1 hour before Fas-AAb
Description: (§1) The 661W cell line was maintained in Dulbecco's modified Eagle's medium containing 10% fetal bovine serum, 300 mg/L glutamine, 32 mg/L putrescine, 40 μL/L of β-mercaptoethanol, and 40 μg/L of both hydrocortisone 21-hemisuccinate and progesterone. The media also contained penicillin (90 units/mL) and streptomycin (0.09 mg/mL). Cells were grown at 37° C. in a humidified atmosphere of 5% CO2 and 95% air.
(§2) Retinas from experimental eyes with detachments and control eyes without detachments were dissected from the RPE-choroid, homogenized, and lysed in buffer containing 10 mM HEPES (pH 7.6), 0.5% IgEPal, 42 mM KCl, 1 mM phenylmethylsulfonyl fluoride (PMSF), 1 mM EDTA, 1 mM EGTA, 1 mM dithiothreitol (DTT), and 5 mM MgCl2 and 1 tablet of protease inhibitors per 10 mL buffer (Complete Mini; Roche Diagnostics GmbH, Madison, Wis.). 661W cells were lysed and homogenized in lysis buffer (as above). The homogenates were incubated on ice and centrifuged at 22,000 g at 4° C. for 60 minutes. The protein concentration of the supernatant was then determined (DC Protein Assay kit; Bio-Rad Laboratories, Hercules, Calif.). The protein samples were separated on SDS-polyacrylamide gels (Tris-HCl Ready Gels; Bio-Rad Laboratories, Hercules, Calif.). […] Protein bands were visualized with Ponceau S staining, and the lanes were assessed for equal loading by densitometry of entire lanes. […]

caspase 8 = test: Luminescent caspase 8 activity assay in 661W cells; format: cell-based
Description: as §1
Caspase 8 and Caspase 3 activity were measured by a commercially available luminescent tetrapeptide cleavage assay kits (Promega, Madison, Wis.). The 661W cells were seeded in 96-well plates (Nunc, Rochester, N.Y.) at 1000-1500 cells/well for 24 hours prior to treatment or siRNA transfection. Cells were treated with 500 ng/mL of Fas-agonistic Jo2 monoclonal antibody (BD Biosciences, Franklin Lakes, N.J.). In some experiments, cells were pretreated with MEK inhibitor U0126, JNK inhibitor SP600125, or DMSO. Caspase activity was measured at various time points by incubating the cells with the pro-luminescent substrate in 96-well plates following manufacturer's instructions. Controls included untreated cells and wells with no cells. Luminescence was measured in a plate reader luminometer (Turner Biosystems, Sunnyvale, Calif.). […]

caspase 3 = test: Luminescent caspase 3 activity assay in 661W cells; format: cell-based
Description: as §1
(§3) Caspase 8 and Caspase 3 activity were measured by a commercially available luminescent tetrapeptide cleavage assay kits (Promega, Madison, Wis.). The 661W cells were seeded in 96-well plates (Nunc, Rochester, N.Y.) at 1000-1500 cells/well for 24 hours prior to treatment or siRNA transfection. Cells were treated with 500 ng/mL of Fas-agonistic Jo2 monoclonal antibody (BD Biosciences, Franklin Lakes, N.J.). In some experiments, cells were pretreated with MEK inhibitor U0126, JNK inhibitor SP600125, or DMSO. Caspase activity was measured at various time points by incubating the cells with the pro-luminescent substrate in 96-well plates following manufacturer's instructions. Controls included untreated cells and wells with no cells. Luminescence was measured in a plate reader luminometer (Turner Biosystems, Sunnyvale, Calif.).

661W cells = test: Luminescent cell viability assay, Fas-mediated cell death of 661W cells; format: cell-based; conditions: 661W cells treated with Fas-AAb
Description: as §1
as §3, with “Cell viability was” for “Caspase 8 and Caspase 3 activity were”, “luminescent” for “luminescent tetrapeptide cleavage”, “kit” for “kits”, “treatment.” for “treatment or siRNA transfection.”, “Cell viability” for “Caspase activity”, “Sunnyvale” for “Sunnyvale,”

Faim2 = test: Immunoblot of Faim2 protein levels in 661W cells; format: cell-based, mouse; conditions: 661W cells treated with Fas-AAb
Description: as §1, §2

c-Jun = test: Immunoblot of phosphorylation of JNK-target c-Jun (P-c-Jun) in Fas-AAb treated 661W cells; format: cell-based; conditions: inhibitor pretreatment 1 hour before Fas-AAb
Description: as §1, §2

[1] = 661W cells treated with Fas-AAb
[2] = 661W cells, 24 hours of Fas-AAb treatment

SMILES	Concentration of maximal inhibition of Fas-AAb-induced ERK phosphorylation (ERK)	Effect on Fas-AAb-induced phosphorylation of ERK (ERK; protein isolated 4 hours later)	Maximally-effective dose for increasing caspase 8 activity (caspase 8; [1])	Caspase 8 activity in presence of inhibitor (caspase 8; [2])	Maximally-effective dose for increasing caspase 3 activity (caspase 3; [1])	Caspase 3 activity in presence of inhibitor (caspase 3; [2])	Fas-AAb-mediated cell death in presence of inhibitor (661W cells)	Faim2 levels in Fas-AAb treated cells in presence of MAPK inhibitor (Faim2)	Faim2 level by densitometry (Faim2; 10 μM dose of inhibitor)	Concentration of maximal effect on Fas-AAb-dependent c-Jun phosphorylation (c-Jun)
N#CC(=C(/N)Sc1ccccc1N)/C(C#N)=C(\N)Sc1ccccc1N [U0126]	10 µM	effective in preventing	10 µM	dose-dependent increase	10 µM	dose-dependent increase	increased Fas-AAb-mediated cell death	dose-dependent inhibition; also recorded: reduced the levels of Faim2	significant decrease	–
Oc1c2ccccc2c2c3c(cccc13)N=N2 [SP600125]	–	–	–	–	–	–	–	–	–	10 to 20 µM
